Measurements reported in patent US20030017146A1, “Arginine decomposing enzyme therapeutic composition” (priority 1996, published 2003).
Entries after “also recorded” stand apart in the source; their conditions may differ.

What was measured:
[1] = system: HeLa Cells (human cervical carcinoma); assay: Arginine deprivation of HeLa cells in vitro, survival and recovery (cloning studies); assay type: cell-based
Protocol: Our in vitro work (D. N. Wheatly: Personal communication) with HeLa Cells (human cervical carcinoma) and early passages of human fibroblasts has established limits of survival and recovery after different items of arginine deprivation. […] By 96 hours of deprivation all HeLa cells were dead. In contrast, healthy fibroblasts could be recovered after even 10 days of deprivation.
Further work established that arginine concentration of 1 micro mole per liter had essentially the same effects as total deprivation. At 40 mircomolar, HeLa cycle was already disturbed, and killing of the cells started below 10 mircomolar. Thus our target “killing zone” for HeLa cells is 1 to 10 micromolar concentration of arginine during three to four days of deprivation.

thrombocytes = assay: Iloprost infusion against loss of thrombocytes limiting duration of dialysis sessions; assay type: in vivo, dogs; conditions: dog, infusion at 0.5 to 1.0 ng/kg/hr, last two sessions
Protocol: No systemic problems were seen that would indicate serious threats caused by the lack of arginine. As discussed earlier, loss of thrombocytes was the main factor limiting duration of the sessions. In the last two sessions on the last dog we used yet another infusion pump to deliver iloprost (ILOMEDIN), Schering), a stable analog of prostacyclin (at 0.5 to 1.0 ng/kg/hr). […] By deployment of the approaches described earlier (oxygen supply) this problem will certainly be resolved.

[2] = cited from earlier work
[3] = Continuous hemodialysis removal of arginine with insulin/glucose clamp in healthy dogs; assay type: in vivo; conditions: dog plasma, direct infusion of insulin and glucose with dialysis, blood flow 300 to 400 ml/min, single filter
Excerpt: We have thus devised an approach combining our technique of extracorporeal blood treatment for removal of arginine (or any number of selected amino acids) with a pharmacological intervention employing an insulin/glucose clamp. As mentioned earlier, insulin is both an inhibitor of muscle protein breakdown (of both lysosomal and proteasomal pathways) and a promoter of protein synthesis. Since the net release of amino acids depends on both of these cellular activities, insulin is an excellent choice.
The upper two curves (dashed lines) are from the two sessions without insulin. Not shown are the concentrations of other amino acids, which could be maintained close to their pre-set levels (determined by their concentrations in the dialyzing fluid).
A detailed description of the experiment performed on one (the first) of the last three dogs is as follows. […]
Concentrations of amino acids in the blood plasma were measured on an amino acid analyzer (Pharmacia, Biochrom 20) using standard procedures of sample preparation. Using a short column and a truncated buffer program, several amino acids (phenylalanine, histidine, 3-methyl-histidine, tryptophan, lysine, and arginine) could be measured in about 30 minutes of analyzer running time. […]

[4] = cited from earlier work; remark: listed apart in the source
[5] = pH 7.4; cited from earlier work

## N=C(N)NCCC[C@H](N)C(=O)O [arginine]
[1]
  arginine concentration at which the cell cycle was already disturbed: 40 mircomolar
  arginine concentration below which killing of the cells started: below 10 mircomolar
  arginine concentration with essentially the same effects as total deprivation: 1 micro mole per liter

## CC#CCC(C)[C@H](O)/C=C/[C@@H]1[C@H]2C/C(=C/CCCC(=O)O)C[C@H]2C[C@H]1O (stereo partly shown) [iloprost]
thrombocytes
  prolongation of the sessions: slight prolongation only

## Cc1ncc(COP(=O)(O)O)c(C=O)c1O [pyridoxal 5′-phosphate]
[2]; in circulation
  half life: about 15 minutes

## Cc1ncc(CO)c(CO)c1O.Cl [pyrodoxine hydrochloride, reference compound]
[2]; human plasma, oral supplement of 100 mg/day, normal about 60 nM
  plasma concentration of pyridoxal 5'-phosphate reached: 450 nM

## insulin
[3]
  arginine level reached: 1.5 µM

B1: bADC: biosynthetic arginine decarboxylase of E. coli, tetramer of 296,000 molecular weight requiring pyridoxal 5'-phosphate and magnesium ion (protein, UniProt P21170 1-658, looked up)
Biosynthetic arginine …: MSDDMSMGLPSSAGEHGVLRSMQEVAMSSQEASKMLRTYNIAWWGNNYYDVNELGHISVCPDPDVPEARVDLAQLVKTREAQGQRLPALFCFPQILQHRLRSINAAFKRARESYGYNGDYFLVYPIKVNQHRRVIESLIHSGEPLGLEAGSKAELMAVLAHAGMTRSVIVCNGYKDREYIRLALIGEKMGHKVYLVIEKMSEIAIVLDEAERLNVVPRLGVRARLASQGSGKWQSSGGEKSKFGLAATQVLQLVETLREAGRLDSLQLLHFHLGSQMANIRDIATGVRESARFYVELHKLGVNIQCFDVGGGLGVDYEGTRSQSDCSVNYGLNEYANNIIWAIGDACEENGLPHPTVITESGRAVTAHHTVLVSNIIGVERNEYTVPTAPAEDAPRALQSMWETWQEMHEPGTRRSLREWLHDSQMDLHDIHIGYSSGIFSLQERAWAEQLYLSMCHEVQKQLDPQNRAHRPIIDELQERMADKMYVNFSLFQSMPDAWGIDQLFPVLPLEGLDQVPERRAVLLDITCDSDGAIDHYIDGDGIATTMPMPEYDPENPPMLGFFMVGAYQEILGNMHNLFGDTEAVDVFVFPDGSVEVELSDEGDTVADMLQYVQLDPKTLLTQFRDQVKKTDLDAELQQQFLEEFEAGLYGYTYLEDE
[4]; absolute requirement for magnesium ion
  pH of optimal activity: ~8
[4]; cofactor
  Michaelis constant for pyridoxal 5'-phosphate: 0.6 µM
[4]; enzyme purified 1,000 fold
  specific activity: 16.4 units/mg
[4]; sigmoidal magnesium saturation curve
  magnesium saturation S0.5: 1.3 mM
[4]; substrate
  Michaelis constant for arginine: 30 µM

B2: dADC: inducible (biodegradative) arginine decarboxylase of E. coli, molecular weight 850,000, induced by low pH (protein, UniProt P28629 1-755, looked up)
Biodegradative arginine …: MKVLIVESEFLHQDTWVGNAVERLADALSQQNVTVIKSTSFDDGFAILSSNEAIDCLMFSYQMEHPDEHQNVRQLIGKLHERQQNVPVFLLGDREKALAAMDRDLLELVDEFAWILEDTADFIAGRAVAAMTRYRQQLLPPLFSALMKYSDIHEYSWAAPGHQGGVGFTKTPAGRFYHDYYGENLFRTDMGIERTSLGSLLDHTGAFGESEKYAARVFGADRSWSVVVGTSGSNRTIMQACMTDNDVVVVDRNCHKSIEQGLMLTGAKPVYMVPSRNRYGIIGPIYPQEMQPETLQKKISESPLTKDKAGQKPSYCVVTNCTYDGVCYNAKEAQDLLEKTSDRLHFDEAWYGYARFNPIYADHYAMRGEPGDHNGPTVFATHSTHKLLNALSQASYIHVREGRGAINFSRFNQAYMMHATTSPLYAICASNDVAVSMMDGNSGLSLTQEVIDEAVDFRQAMARLYKEFTADGSWFFKPWNKEVVTDPQTGKTYDFADAPTKLLTTVQDCWVMHPGESWHGFKDIPDNWSMLDPIKVSILAPGMGEDGELEETGVPAALVTAWLGRHGIVPTRTTDFQIMFLFSMGVTRGKWGTLVNTLCSFKRHYDANTPLAQVMPELVEQYPDTYANMGIHDLGDTMFAWLKENNPGARLNEAYSGLPVAEVTPREAYNAIVDNNVELVSIENLPGRIAANSVIPYPPGIPMLLSGENFGDKNSPQVSYLRSLQSWDHHFPGFEHETEGTEIIDGIYHVMCVKA
[5]
  catalytic activity at physiological pH: vanishes; also recorded: near total loss of activity
